From patent US20070088019A1, “Macroheterocyclic compounds as kinase inhibitors” (priority 2005, published 2007)

How the values were obtained:
[1] = target: PKC isoform α (Homo sapiens, UniProt P17252); test: Protein Kinase C histone-based assay, PKC alpha; format: biochemical; details: histone substrate, 30 μM ATP, 10 min at 30° C.
Protocol: (§1) Protein Kinase C Histone-Based Assay
(§2) Compounds were evaluated for PKC selectivity using histone III as the substrate. The PKC isoforms α, β-II or γ were added to a reaction mixture containing 20 mM HEPES, (pH 7.4), […] CaCl2, 10 mM MgCl2, 1 mM EGTA. 100 μg/mL phosphatidylserine, 20 μg/mL diacylglycerol, 30 μM ATP, 1 μCi (^33P)ATP, and 200 μg/mL […]. The reaction was incubated for 10 min at 30° C. Reactions were terminated by TCA precipitation and spotting on Whatman P81 filters. Filters were washed in 75 mM phosphoric acid and the radioactivity quantified by liquid scintillation counting.

[2] = target: PKC Beta I (Homo sapiens, UniProt P05771); test: Protein Kinase C histone-based assay, PKC beta I; format: biochemical; details: histone substrate, 30 μM ATP, 10 min at 30° C.
[3] = target: PKC isoform β-II (Homo sapiens, UniProt P05771); test: Protein Kinase C histone-based assay, PKC beta II; format: biochemical; details: histone substrate, 30 μM ATP, 10 min at 30° C.
Protocol: as §1, §2

[4] = target: PKC isoform γ (Homo sapiens, UniProt P05129); test: Protein Kinase C histone-based assay, PKC gamma; format: biochemical; details: histone substrate, 30 μM ATP, 10 min at 30° C.
Protocol: as §1, §2

[5] = target: T1, recombinant rabbit GSK-3β protein (Oryctolagus cuniculus, UniProt G1T8E2); test: Glycogen Synthase Kinase-3 assay; format: biochemical; details: PPI-2 substrate, 33P-ATP, 90 minutes at 30° C.
T1 construct: purchased New England Biolabs
Protocol: Glycogen Synthase Kinase-3 Assay
Compounds were tested for the ability to inhibit recombinant rabbit GSK-3β protein using the following protocol. The test compound was added to a reaction mixture containing Protein phosphatase inhibitor-2 (PPI-2) (Calbiochem) (45 ng), rabbit GSK-3β protein (New England Biolabs) (0.75 units) and ^33P-ATP (1 μCi) in 50 mM Tris-HCl (pH 8.0), 10 mM MgCl2, 0.1% BSA, 1 mM DTT and 100 μM Sodium Vanadate. The mixture was reacted for 90 minutes at 30° C. to allow phosphorylation of the PPI-2 protein and then the protein in the reaction was precipitated using 10% TCA. The precipitated protein was collected on filter plates (MultiScreen-DV/Millipore), which were subsequently washed. Finally, the radioactivity was quantified using a TopCount Scintillation Counter (Packard). […] Staurosporine or Valproate, known inhibitors of GSK-3β, were used as a positive control for screening.

[6] = tested on: retinal neovascularization; test: Murine retinopathy in-vivo model (oxygen-induced retinopathy); design: species or system mouse; details: 60 mg/kg
From the text: Murine Retinopathy In-Vivo Model
The methods used in this model are known to those skilled in the art and are referenced in the scientific literature, such as Smith, L. E., Wesolowski, E., McLellan, A., Kostyk, S. K., D'Amato, R., Sullivan, R., and D'Amore, P. A. “Oxygen-induced retinopathy in the mouse”. Invest. Ophthalmol. Vis. Sci., 1994, January; 35(1): 101-11.

T1 sequence (G1T8E2 1-432): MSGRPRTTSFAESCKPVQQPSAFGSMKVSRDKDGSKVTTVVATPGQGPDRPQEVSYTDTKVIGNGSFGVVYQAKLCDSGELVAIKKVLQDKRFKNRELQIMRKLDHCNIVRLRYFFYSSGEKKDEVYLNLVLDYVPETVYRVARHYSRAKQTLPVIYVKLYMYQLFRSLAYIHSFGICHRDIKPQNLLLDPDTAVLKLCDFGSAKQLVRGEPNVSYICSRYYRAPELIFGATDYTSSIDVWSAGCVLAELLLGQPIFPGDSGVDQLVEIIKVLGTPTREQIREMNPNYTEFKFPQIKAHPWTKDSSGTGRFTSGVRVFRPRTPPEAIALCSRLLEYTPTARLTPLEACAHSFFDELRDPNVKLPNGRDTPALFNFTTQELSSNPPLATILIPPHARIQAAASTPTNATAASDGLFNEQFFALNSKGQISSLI
Sequence of PKC Beta I (P05771 whole entry, canonical isoform): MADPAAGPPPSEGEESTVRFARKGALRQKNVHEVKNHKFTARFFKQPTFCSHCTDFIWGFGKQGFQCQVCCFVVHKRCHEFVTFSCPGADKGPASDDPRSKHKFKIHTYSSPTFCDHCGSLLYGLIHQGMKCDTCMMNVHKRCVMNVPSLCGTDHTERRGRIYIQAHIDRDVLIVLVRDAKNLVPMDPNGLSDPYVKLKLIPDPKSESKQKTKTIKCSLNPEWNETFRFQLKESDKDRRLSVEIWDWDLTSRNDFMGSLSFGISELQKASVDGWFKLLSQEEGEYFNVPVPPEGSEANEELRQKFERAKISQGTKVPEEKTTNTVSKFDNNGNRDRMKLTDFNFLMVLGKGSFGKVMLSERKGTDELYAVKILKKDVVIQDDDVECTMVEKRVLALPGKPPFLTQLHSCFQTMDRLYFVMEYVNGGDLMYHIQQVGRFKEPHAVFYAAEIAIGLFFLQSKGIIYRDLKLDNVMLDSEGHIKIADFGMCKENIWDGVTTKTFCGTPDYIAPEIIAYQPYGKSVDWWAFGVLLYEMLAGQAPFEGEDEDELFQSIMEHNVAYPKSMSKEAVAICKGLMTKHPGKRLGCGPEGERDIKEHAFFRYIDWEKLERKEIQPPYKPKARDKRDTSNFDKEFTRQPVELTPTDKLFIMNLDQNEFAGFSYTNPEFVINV
Sequence of PKC isoform β-II (P05771 1-673 isoform P05771-2): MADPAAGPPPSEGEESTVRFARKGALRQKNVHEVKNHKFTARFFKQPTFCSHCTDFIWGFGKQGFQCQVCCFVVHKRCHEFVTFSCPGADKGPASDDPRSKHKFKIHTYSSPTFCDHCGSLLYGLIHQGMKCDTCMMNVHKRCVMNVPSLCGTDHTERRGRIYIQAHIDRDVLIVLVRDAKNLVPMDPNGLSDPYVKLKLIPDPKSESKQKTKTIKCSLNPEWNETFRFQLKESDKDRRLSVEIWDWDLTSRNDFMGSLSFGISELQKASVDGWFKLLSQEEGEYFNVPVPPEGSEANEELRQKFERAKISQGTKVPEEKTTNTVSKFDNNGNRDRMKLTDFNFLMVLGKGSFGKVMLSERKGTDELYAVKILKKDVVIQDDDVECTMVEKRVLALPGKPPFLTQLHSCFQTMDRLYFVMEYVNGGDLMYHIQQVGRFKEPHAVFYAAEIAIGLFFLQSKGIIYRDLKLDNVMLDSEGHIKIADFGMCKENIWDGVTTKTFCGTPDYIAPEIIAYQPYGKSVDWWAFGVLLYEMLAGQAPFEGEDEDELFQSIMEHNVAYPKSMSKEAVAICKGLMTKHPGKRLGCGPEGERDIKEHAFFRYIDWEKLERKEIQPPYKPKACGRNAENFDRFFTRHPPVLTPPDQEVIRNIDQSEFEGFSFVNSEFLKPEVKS

IC50 [1] [µM] | IC50 [2] [µM] | IC50 [3] [µM] | IC50 [4] [µM] | IC50 [5] [µM] | SMILES | retinal neovascularization [6]
0.16 | 0.009 | 0.006 | 0.36 | 0.005 | O=C1NC(=O)C2=C1c1cn(c3ccccc13)CCNCCSCCNCCn1cc2c2ccccc21 [Compound 1, 10,11,12,13,14,16,17,18,19,20-decahydro-15-thio-2,9,12,18,21-pentaaza-1H-diindolo[1,2,3-m,n:3′,2′,1′-r,s]cyclononadec-14,16,18-trien[16,17-c]-pyrrole-2,5-dione] | –
0.49 | 0.027 | 0.041 | 1.56 | 0.006 | CN1CCOCCN(C)CCn2cc(c3ccccc32)C2=C(C(=O)NC2=O)c2cn(c3ccccc23)CC1 [Compound 2, 12,18-dimethyl-10,11,12,13,14,16,17,18,19,20-decahydro-15-oxa-2,9,12,18,21-pentaaza-1H-diindolo[1,2,3-m,n:3′,2′,1′-r,s]cyclononadec-14,16,18-trien[16,17-c]-pyrrole-2,5-dione] | –
0.33 | 0.009 | 0.013 | 5.84 | 0.007 | O=C1NC(=O)C2=C1c1cn(c3ccccc13)CCNCCOCCNCCn1cc2c2ccccc21 [Compound 3, 10,11,12,13,14,16,17,18,19,20-decahydro-15-oxa-2,9,12,18,21-pentaaza-1H-diindolo[1,2,3-m,n:3′,2′,1′-r,s]cyclononadec-14,16,18-trien[16,17-c]-pyrrole-2,5-dione] | inhibited retinal neovascularization
0.28 | 0.006 | 0.008 | 1.2 | – | CN1CCOCCNCCn2cc(c3ccccc32)C2=C(C(=O)NC2=O)c2cn(c3ccccc23)CC1 [Compound 4, 18-methyl-10,11,12,13,14,16,17,18,19,20-decahydro-15-oxa-2,9,12,18,21-pentaaza-1H-diindolo[1,2,3-m,n:3′,2′,1′-r,s]cyclononadec-14,16,18-trien[16,17-c]-pyrrole-2,5-dione] | –
